Measurements from patent US20260042755A1, “GPR6 INVERSE AGONISTS” (MapLight Therapeutics, Inc., priority 2022, published 2026).
pIC50: −log10 of the molar value.

Assays:
[1] = target: T1, GPR6 (Homo sapiens, UniProt P46095); experiment: GPR6 antagonist functional cAMP assay (LANCE Ultra cAMP TR-FRET, CHO cells stably expressing GPR6); type: cell-based
T1 construct: expressed in transfected cells; host or cells: CHO cells
Method in brief: (§1)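 Suspended cells were plated at 10,000 per well in Krebs-Ringer bicarbonate buffer containing 0.1% BSA and 150 μM Ro 20-1724, then treated with compounds for 45 min at 37 °C. Intracellular cAMP was then quantified by TR-FRET immunoassay.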

[2] = target: T2, GPR3 (Homo sapiens, UniProt P46089); experiment: GPR3 antagonist functional cAMP assay (LANCE Ultra cAMP TR-FRET, CHO cells stably expressing GPR3); type: cell-based
T2 construct: expressed in transfected cells; host or cells: CHO cells
Method in brief: as §1

[3] = CHO cells stably expressing GPR6, cAMP assay (Example 24)
[4] = CHO cells stably expressing GPR3, cAMP assay (Example 24)
[5] = CHO cells stably expressing GPR6, cAMP assay
[6] = CHO cells stably expressing GPR3, cAMP assay

T1 sequence (P46095 whole entry): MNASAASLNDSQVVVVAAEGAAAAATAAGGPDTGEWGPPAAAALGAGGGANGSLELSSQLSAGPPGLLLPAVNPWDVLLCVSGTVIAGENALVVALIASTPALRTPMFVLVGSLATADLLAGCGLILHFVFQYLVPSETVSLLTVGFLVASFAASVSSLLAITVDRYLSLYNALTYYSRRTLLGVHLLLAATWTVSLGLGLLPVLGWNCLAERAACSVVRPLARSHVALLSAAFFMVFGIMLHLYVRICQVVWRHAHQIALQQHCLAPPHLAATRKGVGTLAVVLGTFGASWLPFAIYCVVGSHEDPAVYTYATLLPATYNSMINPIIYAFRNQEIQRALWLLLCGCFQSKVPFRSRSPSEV
T2 sequence (P46089 whole entry, species assumed): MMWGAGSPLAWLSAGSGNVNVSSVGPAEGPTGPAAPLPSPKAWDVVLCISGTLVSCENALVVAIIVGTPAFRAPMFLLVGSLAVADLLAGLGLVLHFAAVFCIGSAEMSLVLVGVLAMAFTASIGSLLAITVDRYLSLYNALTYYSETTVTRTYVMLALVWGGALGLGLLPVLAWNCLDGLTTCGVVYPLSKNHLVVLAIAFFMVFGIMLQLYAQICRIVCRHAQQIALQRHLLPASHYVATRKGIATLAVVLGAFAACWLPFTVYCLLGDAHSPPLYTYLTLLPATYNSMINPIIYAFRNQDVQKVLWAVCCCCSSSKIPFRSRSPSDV

| pIC50 [1, 3] | pIC50 [2, 4] | pIC50 ([1]; procedure of Example 24) | pIC50 ([2]; procedure of Example 24) | Compound | other results |
| --- | --- | --- | --- | --- | --- |
| 4.52 to 6.00 | 4.52 to 6.00 | – | – | CC(=O)N1CCC(c2nc3c(nc2N2CCC(Oc4ccc(F)cc4F)CC2)CCN(C(C)=O)C3)CC1 [Compound 91, 1-(4-(6-acetyl-2-(4-(2,4-difluorophenoxy)piperidin-1-yl)-5,6,7,8-tetrahydropyrido[3,4-b]pyrazin-3-yl)piperidin-1-yl)ethan-1-one] | – |
| ≤ 4.52 | ≤ 4.52 | – | – | Cn1cc(-c2nc3cnccc3nc2N2CCN(Cc3ccc(F)cc3F)C(=O)C2)cn1 [Compound 127, 1-[(2,4-difluorophenyl)methyl]-4-[3-(1-methyl-1H-pyrazol-4-yl)pyrido[3,4-b]pyrazin-2-yl]piperazin-2-one] | – |
| – | – | – | – | CC(=O)N1CCc2nc(N3CCC(C(F)c4ccc(F)cc4F)CC3)c(-c3cnn(C)c3)nc2C1 (stereo not shown) [Compound 557, 1-(2-{4-[(2,4-difluorophenyl)fluoromethyl]-1-piperidyl}-3-(1-methyl-4-pyrazolyl)-5,6,7,8-tetrahydro-1,4,6-triaza-6-naphthyl)-1-ethanone] | pIC50 [1, 5]: > 7.00; pIC50 [2, 6]: > 7.00 |
| – | – | 4.52 to 6.00 | 4.52 to 6.00 | CC(=O)N1CCc2nc(N3CCC(COc4ccccc4F)C3)c(-c3cnn(C)c3)nc2C1 (stereo not shown) [Compound 323, 1-(2-{3-[(2-fluorophenoxy)methyl]pyrrolidin-1-yl}-3-(1-methyl-1H-pyrazol-4-yl)-5H,6H,7H,8H-pyrido[3,4-b]pyrazin-6-yl)ethan-1-one] | – |
| – | – | 6.00 to 7.00 | 4.52 to 6.00 | CC(C)(O)[C@H](O)c1cc2nc(N3CCN(Cc4ccccc4F)CC3)c(-c3cnn(C(F)F)c3)nc2cn1 (single isomer, unassigned) [Compound 612] | – |
| 4.52 to 6.00 | 4.52 to 6.00 | – | – | COCn1ccnc1-c1nc2c(nc1N1CCC(Oc3ccc(F)cc3F)CC1)CCN(C(C)=O)C2 [Compound 67, 1-{2-[4-(2,4-difluorophenoxy)piperidin-1-yl]-3-[1-(methoxymethyl)-1H-imidazol-2-yl]-5H,6H,7H,8H-pyrido[3,4-b]pyrazin-6-yl}ethan-1-one] | – |
| – | – | – | – | CC(C)(O)C(C)(O)c1cc2nc(N3CCN(Cc4ccc(F)cc4F)CC3)c(-c3cnn(C4CC4)c3)nc2cn1 (stereo not shown) [Compound 605, 2-[3-(1-cyclopropyl-4-pyrazolyl)-2-{4-[(2,4-difluorophenyl)methyl]-1-piperazinyl}-1,4,6-triaza-7-naphthyl]-3-methyl-2,3-butanediol] | pIC50 [1, 5]: 6.00 to 7.00; pIC50 [2, 6]: 4.52 to 6.00 |
| – | – | 6.00 to 7.00 | 4.52 to 6.00 | Cn1cc(-c2nc3cnc(N)cc3nc2N2CCC(Oc3ccc(F)cc3F)CC2)cn1 [Compound 277, 2-[4-(2,4-difluorophenoxy)piperidin-1-yl]-3-(1-methyl-1H-pyrazol-4-yl)pyrido[3,4-b]pyrazin-7-amine] | – |
| 6.00 to 7.00 | 4.52 to 6.00 | – | – | C[C@@H](O)[C@@H](O)c1cc2nc(N3CCC(Oc4ccc(F)cc4F)CC3)c(-c3cnn(C)c3)nc2cn1 (single isomer, unassigned) [Compound 472] | – |
| 4.52 to 6.00 | 4.52 to 6.00 | – | – | CNc1cc2nc(N3CCC(Oc4ccc(F)cc4F)CC3)c(-c3cnn(C)c3)nc2cn1 [Compound 433, 2-(4-(2,4-difluorophenoxy)piperidin-1-yl)-N-methyl-3-(1-methyl-1H-pyrazol-4-yl)pyrido[3,4-b]pyrazin-7-amine] | – |
| 4.52 to 6.00 | 4.52 to 6.00 | – | – | CC(=O)N1CCc2nc(N3CCC(Oc4ccc(F)cc4F)CC3)c(-c3ccnc(Cl)n3)nc2C1 [Compound 466, 1-[3-(2-chloropyrimidin-4-yl)-2-[4-(2,4-difluorophenoxy)piperidin-1-yl]-5H,6H,7H,8H-pyrido[3,4-b]pyrazin-6-yl]ethan-1-one] | – |
| – | – | 6.00 to 7.00 | 4.52 to 6.00 | CC(C)(O)[C@@](C)(O)c1cc2nc(N3CCC(Oc4ccc(F)cc4F)CC3)c(-c3cnn(C4CC4)c3)nc2cn1 (single isomer, unassigned) [Compound 665] | – |
| 4.52 to 6.00 | ≤ 4.52 | – | – | CC(=O)N1CCc2nc(N3CCC(Oc4ccc(F)cc4F)CC3)c(-c3cccc(NC(C)C)n3)nc2C1 [Compound 103, 1-{2-[4-(2,4-difluorophenoxy)piperidin-1-yl]-3-{6-[(propan-2-yl)amino]pyridin-2-yl}-5H,6H,7H,8H-pyrido [3,4-b]pyrazin-6-yl}ethan-1-one] | – |
| > 7.00 | 4.52 to 6.00 | – | – | CC(=O)N1CCc2nc(N3CCC(Oc4ccc(F)cc4F)CC3)c(-c3cnn(CF)c3)nc2C1 [Compound 439, 1-{2-[4-(2,4-difluorophenoxy)piperidin-1-yl]-3-[1-(fluoromethyl)-1H-pyrazol-4-yl]-5H,6H,7H,8H-pyrido[3,4-b]pyrazin-6-yl}ethan-1-one] | – |
| – | – | > 7.00 | 6.00 to 7.00 | COC[C@@H](O)c1cc2nc(-c3cnn(C)c3)c(N3CCC(Oc4ccc(F)cc4F)CC3)nc2cn1 (single isomer, unassigned) [Compound 680] | – |
| – | – | 4.52 to 6.00 | 4.52 to 6.00 | COc1ccc(C(=O)N2CCN(c3nc4c(nc3-c3cnn(C)c3)CN(C(C)=O)CC4)CC2)cc1 [Compound 283, 1-{2-[4-(4-methoxybenzoyl)piperazin-1-yl]-3-(1-methyl-1H-pyrazol-4-yl)-5H,6H,7H,8H-pyrido[3,4-b]pyrazin-6-yl}ethan-1-one] | – |
| 4.52 to 6.00 | 4.52 to 6.00 | – | – | CC(=O)N1CCc2nc(N3CCC(Oc4ccccc4)C3)c(-c3cnn(C)c3)nc2C1 (stereo not shown) [Compound 418, 1-[3-(1-methyl-1H-pyrazol-4-yl)-2-(3-phenoxypyrrolidin-1-yl)-5H,6H,7H,8H-pyrido[3,4-b]pyrazin-6-yl]ethan-1-one] | – |
| 6.00 to 7.00 | 4.52 to 6.00 | – | – | Cn1cc(-c2nc3c(nc2N2CCC(Oc4ccc(F)cc4F)CC2)CC2COCC(=O)N2C3)cn1 (stereo not shown) [Compound 488, 6-[4-(2,4-difluorophenoxy)piperidin-1-yl]-5-(1-methyl-1H-pyrazol-4-yl)-12-oxa-1,4,7-triazatricyclo[8.4.0.0^3,8]tet radeca-3(8),4,6-trien-14-one] | – |
| 6.00 to 7.00 | 4.52 to 6.00 | – | – | CNCC(O)c1cc2nc(N3CCC(Oc4ccc(F)cc4F)CC3)c(-c3cnn(C)c3)nc2cn1 (stereo not shown) [Compound 414, 1-{2-[4-(2,4-difluorophenoxy)piperidin-1-yl]-3-(1-methyl-1H-pyrazol-4-yl)pyrido[3,4-b]pyrazin-7-yl}-2-(methylamino)ethan-1-ol] | – |
| 6.00 to 7.00 | 4.52 to 6.00 | – | – | CC(C)(O)C(O)c1cc2nc(N3CCC(Oc4ccc(F)cc4F)CC3)c(-c3cnn(C(F)F)c3)nc2cn1 (stereo not shown) [Compound 407, 1-{3-[1-(difluoromethyl)-4-pyrazolyl]-2-[4-(2,4-difluorophenoxy)-1-piperidyl]-1,4,6-triaza-7-naphthyl}-2-methyl-1,2-propanediol] | – |
| 4.52 to 6.00 | 4.52 to 6.00 | – | – | CC(=O)N1CCc2nc(N3CCC(Oc4ccc(F)cc4F)CC3)c(-c3nccs3)nc2C1 [Compound 75, 1-{2-[4-(2,4-difluorophenoxy)piperidin-1-yl]-3-(1,3-thiazol-2-yl)-5H,6H,7H,8H-pyrido[3,4-b]pyrazin-6-yl}ethan-1-one] | – |
| – | – | 6.00 to 7.00 | 4.52 to 6.00 | CC(C)(O)C(C)(O)c1cc2nc(-c3cnn(C(F)F)c3)c(N3CCN(Cc4ccccc4F)CC3)nc2cn1 (single isomer, unassigned) [Compound 709] | – |
| 4.52 to 6.00 | 4.52 to 6.00 | – | – | CC(=O)N1CCc2nc(N3CCC(Oc4ccc(F)cc4F)CC3)c(-c3cccc(OC4CCOC4)n3)nc2C1 (stereo not shown) [Compound 61, 1-{2-[4-(2,4-difluorophenoxy)piperidin-1-yl]-3-[6-(oxolan-3-yloxy)pyridin-2-yl]-5H,6H,7H,8H-pyrido[3,4-b]pyrazin-6-yl}ethan-1-one] | – |
